Measured values published in ChEMBL document CHEMBL1131036, “Structure-based design, synthesis, and biological evaluation of irreversible human rhinovirus 3C protease inhibitors. 1. Michael acceptor structure-activity studies” (J Med Chem, 1998).
pEC50: −log10 of the molar value.

Assays:
HeLa [1] = assay: Formazan production in HRV-14 virus infected cells; assay type: functional, cell-based; conditions: Homo sapiens
HeLa [2] = assay: Concentration of compound that decreased the percentage of formazan production in treated HRV-14 virus infected cells to that produced in uninfected cells; assay type: functional; conditions: Homo sapiens
[3] = target: T1, Human rhinovirus A protease (Human rhinovirus sp.) (UniProt Q4U254); assay: Catalytic rate constant (Kobs/[I]) was evaluated against human rhinovirus (HRV) serotype 2 3C Protease (3CP)
T1 sequence (whole entry): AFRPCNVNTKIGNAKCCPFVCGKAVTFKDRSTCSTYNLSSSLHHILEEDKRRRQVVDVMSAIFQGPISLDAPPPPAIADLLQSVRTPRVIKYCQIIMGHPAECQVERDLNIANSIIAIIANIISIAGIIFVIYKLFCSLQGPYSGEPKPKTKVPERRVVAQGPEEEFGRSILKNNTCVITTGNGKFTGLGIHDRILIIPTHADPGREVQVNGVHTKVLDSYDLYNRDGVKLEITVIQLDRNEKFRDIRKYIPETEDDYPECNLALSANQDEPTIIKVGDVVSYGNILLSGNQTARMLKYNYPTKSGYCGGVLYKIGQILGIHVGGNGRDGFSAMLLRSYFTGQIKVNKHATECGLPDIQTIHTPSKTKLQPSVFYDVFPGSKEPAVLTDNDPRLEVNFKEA

[4] = target: T1, Human rhinovirus A protease (Human rhinovirus sp.); assay: Catalytic rate constant (Kobs/[I]) evaluated against human rhinovirus (HRV) serotype 14 3C Protease (3CP); conditions: Human rhinovirus B (HRV-14)
[5] = target: T1, Human rhinovirus A protease (Human rhinovirus sp.); assay: Catalytic rate constant (Kobs/[I]) was evaluated against human rhinovirus (HRV) serotype 16 3C Protease (3CP)
[6] = Half-life in rat plasma; assay type: ADME, organism-based
HeLa [7] = assay: Concentration of compound that increased the percentage of formazan production in HRV-16 virus infected cells to that of untreated control cells; assay type: functional, cell-based; conditions: Homo sapiens
HeLa [8] = assay: Concentration of compound that increased the percentage of formazan production in HRV-2 virus infected cells to that of untreated control cells; assay type: functional, cell-based; conditions: Homo sapiens

Row | Compound | pEC50 (HeLa [1]) | CC50 (HeLa [2]) [nM] | K obs / 1 [3] [M⁻¹ s⁻¹] | K obs / 1 [4] [M⁻¹ s⁻¹] | K obs / 1 [5] [M⁻¹ s⁻¹] | half-life [6] [min] | pEC50 (HeLa [7]) | pEC50 (HeLa [8])
1 | CC(=O)/C=C/[C@H](CCC(N)=O)NC(=O)[C@H](Cc1ccccc1)NC(=O)[C@H](CC(C)C)NC(=O)OCc1ccccc1 | 5.70 | 60000 | 2700 | 54000 | 8900 | – | – | –
2 | CC(=O)N1CC/C(=C\[C@H](CCC(N)=O)NC(=O)[C@H](Cc2ccccc2)NC(=O)[C@H](CC(C)C)NC(=O)OCc2ccccc2)C1=O | 6.15 | > 100000 | 13000 | 156000 | 39000 | – | – | –
3 | CCOC(=O)/C=C/[C@H](CCC(N)=O)NC(=O)[C@H](Cc1ccccc1)NC(=O)[C@H](CC(C)C)NC(=O)OCc1ccccc1 | 6.27 | > 320000 | – | – | – | 10 | 5.64 | 5.80
